Data on 3 molecules can be found in patent US7683040B2, “Intranasal formulation of rotigotine” (SRZ Properties, Inc., priority 2003, dated 2010).

Data set [1] relates to cilia. Particulars: cited from earlier work.
The conditions of data set [2]: cited from earlier work.
For data set [3] the following is noted: rat, cited from earlier work.
A short description of data set [4]: in-vitro permeation assay through nasal mucosa. The format is in vitro ADME, cattle. An excerpt: The intranasal formulation according to the present invention may preferably further contain a viscosity-enhancing substance. Glycerol and carboxymethylcellulose (CMC) are particularly useful as viscosity enhancers, but the present invention is not limited thereto. Glycerol is particularly preferred as it also has a soothing effect on the nasal mucosa. The viscosity of the intranasal formulations of the present invention should preferably be between 0.8 and 1.5 mm^2/s, most preferably around 1.2 mm^2/s. The viscosity can be determined by an Ubbelohde capillary viscosimeter with suspending ball-level for the determination of kinematic viscosity according to DIN 51562, part 1.
The pH-value of the formulation of the present invention should preferably in the range of 4.5 to 6.5, more preferably around 5.8±0.3. […] The pH value of the intranasal formulation can be adjusted during or after its preparation with a pharmaceutically acceptable acid or base. Most preferably, citric acid is used for this purpose.

Data set [5] in a line: (maximum) solubility in aqueous solution with α- or β-cyclodextrin, isocratic HPLC. The format is physicochemical. Particulars: aqueous solution and aqueous solutions containing α- or β-cyclodextrin. The method, then:
The concentration was determined by isocratic HPLC analysis. HPLC column LiChroCART 75×4 mm, Superspher 60 RP-select B 5 μm (Merck), column temperature: 30° C., mobile phase: water/acetonitrile/methane sulfonic acid (65/35/0.05 v/v/v), flow rate: 2 mL/min, injection volume: 50 μl, detection at 220 nm, retention time approx. 1.5 min. The concentration was determined by use of an external reference solution with known concentration.

A short description of data set [6]: comparative storage test in aqueous rotigotine solution with/without α-cyclodextrin. Type of data set: physicochemical. Particulars: solution of 1.6 mg/ml with α-cyclodextrin, storage at 60° C. for 8 weeks. From the text:
The stabilizing effect of α-cyclodextrin becomes also apparent from a comparative test in an aqueous rotigotine solution.

In the case of benzalkonium chloride, the ciliary toxicity entry in data set [1] is given as “significant ciliary toxicity”.
In the case of `CN1CCc2cccc3c2[C@H]1Cc1ccc(O)c(O)c1-3` [apomorphine], the oxidation in solution entry in data set [2] is recorded as “subject to rapid oxidation”.
In the case of `CCCN(CCc1cccs1)[C@H]1CCc2c(O)cccc2C1` [Rotigotine base, 5,6,7,8-tetrahydro-6-[propyl-[2-(2-thienyl)ethyl]amino]-1-naphthalenol], the bioavailability entry in data set [3] (buccal, nasal or rectal administration compared with oral dosing, solution in 1:1 PEG 400 and water) is on record as “improved bioavailability”. Further, the “bioavailability for the nasal dosing” value in data set [3] (compared with results described for other lipophilic drugs) is reported as “somewhat disappointing”. Moreover, the “rotigotine uptake through nasal mucosa” value in data set [4] (formulation pH 4.5) and in data set [4] (formulation pH 6.5) was “significantly lower rotigotine uptake” throughout. Besides, in data set [4] (formulation pH 5.8), the “drug uptake through nasal mucosa” value is “optimal drug uptake”. Also, in data set [4] (glycerol in the formulation), the “uptake of rotigotine through the nasal mucosa” value is reported as “increase the uptake”. In addition, the “solubility (in words)” value in data set [5] was “practically insoluble”. Also, the “decrease in the rotigotine concentration” value in data set [6] was -0.07 mg/mL.
